Experimental data as given in patent publication US12358886B2, “Heterocyclic compounds for use in the treatment of cancer” (Artios Pharma Limited, priority 2019, dated 2025).
Read-outs that look alike come from different tables or passages of the source.

Biological target: Polθ protein (amino acids 2-2590) (Homo sapiens, UniProt O75417)
Experiment: Polθ full length enzyme potency assay (PicoGreen)
Conditions: full length N-His, C-term FLAG tagged Polθ, PicoGreen fluorescence, 12 point concentration response

Polθ protein (amino acids 2-2590), sequence (O75417 2-2590): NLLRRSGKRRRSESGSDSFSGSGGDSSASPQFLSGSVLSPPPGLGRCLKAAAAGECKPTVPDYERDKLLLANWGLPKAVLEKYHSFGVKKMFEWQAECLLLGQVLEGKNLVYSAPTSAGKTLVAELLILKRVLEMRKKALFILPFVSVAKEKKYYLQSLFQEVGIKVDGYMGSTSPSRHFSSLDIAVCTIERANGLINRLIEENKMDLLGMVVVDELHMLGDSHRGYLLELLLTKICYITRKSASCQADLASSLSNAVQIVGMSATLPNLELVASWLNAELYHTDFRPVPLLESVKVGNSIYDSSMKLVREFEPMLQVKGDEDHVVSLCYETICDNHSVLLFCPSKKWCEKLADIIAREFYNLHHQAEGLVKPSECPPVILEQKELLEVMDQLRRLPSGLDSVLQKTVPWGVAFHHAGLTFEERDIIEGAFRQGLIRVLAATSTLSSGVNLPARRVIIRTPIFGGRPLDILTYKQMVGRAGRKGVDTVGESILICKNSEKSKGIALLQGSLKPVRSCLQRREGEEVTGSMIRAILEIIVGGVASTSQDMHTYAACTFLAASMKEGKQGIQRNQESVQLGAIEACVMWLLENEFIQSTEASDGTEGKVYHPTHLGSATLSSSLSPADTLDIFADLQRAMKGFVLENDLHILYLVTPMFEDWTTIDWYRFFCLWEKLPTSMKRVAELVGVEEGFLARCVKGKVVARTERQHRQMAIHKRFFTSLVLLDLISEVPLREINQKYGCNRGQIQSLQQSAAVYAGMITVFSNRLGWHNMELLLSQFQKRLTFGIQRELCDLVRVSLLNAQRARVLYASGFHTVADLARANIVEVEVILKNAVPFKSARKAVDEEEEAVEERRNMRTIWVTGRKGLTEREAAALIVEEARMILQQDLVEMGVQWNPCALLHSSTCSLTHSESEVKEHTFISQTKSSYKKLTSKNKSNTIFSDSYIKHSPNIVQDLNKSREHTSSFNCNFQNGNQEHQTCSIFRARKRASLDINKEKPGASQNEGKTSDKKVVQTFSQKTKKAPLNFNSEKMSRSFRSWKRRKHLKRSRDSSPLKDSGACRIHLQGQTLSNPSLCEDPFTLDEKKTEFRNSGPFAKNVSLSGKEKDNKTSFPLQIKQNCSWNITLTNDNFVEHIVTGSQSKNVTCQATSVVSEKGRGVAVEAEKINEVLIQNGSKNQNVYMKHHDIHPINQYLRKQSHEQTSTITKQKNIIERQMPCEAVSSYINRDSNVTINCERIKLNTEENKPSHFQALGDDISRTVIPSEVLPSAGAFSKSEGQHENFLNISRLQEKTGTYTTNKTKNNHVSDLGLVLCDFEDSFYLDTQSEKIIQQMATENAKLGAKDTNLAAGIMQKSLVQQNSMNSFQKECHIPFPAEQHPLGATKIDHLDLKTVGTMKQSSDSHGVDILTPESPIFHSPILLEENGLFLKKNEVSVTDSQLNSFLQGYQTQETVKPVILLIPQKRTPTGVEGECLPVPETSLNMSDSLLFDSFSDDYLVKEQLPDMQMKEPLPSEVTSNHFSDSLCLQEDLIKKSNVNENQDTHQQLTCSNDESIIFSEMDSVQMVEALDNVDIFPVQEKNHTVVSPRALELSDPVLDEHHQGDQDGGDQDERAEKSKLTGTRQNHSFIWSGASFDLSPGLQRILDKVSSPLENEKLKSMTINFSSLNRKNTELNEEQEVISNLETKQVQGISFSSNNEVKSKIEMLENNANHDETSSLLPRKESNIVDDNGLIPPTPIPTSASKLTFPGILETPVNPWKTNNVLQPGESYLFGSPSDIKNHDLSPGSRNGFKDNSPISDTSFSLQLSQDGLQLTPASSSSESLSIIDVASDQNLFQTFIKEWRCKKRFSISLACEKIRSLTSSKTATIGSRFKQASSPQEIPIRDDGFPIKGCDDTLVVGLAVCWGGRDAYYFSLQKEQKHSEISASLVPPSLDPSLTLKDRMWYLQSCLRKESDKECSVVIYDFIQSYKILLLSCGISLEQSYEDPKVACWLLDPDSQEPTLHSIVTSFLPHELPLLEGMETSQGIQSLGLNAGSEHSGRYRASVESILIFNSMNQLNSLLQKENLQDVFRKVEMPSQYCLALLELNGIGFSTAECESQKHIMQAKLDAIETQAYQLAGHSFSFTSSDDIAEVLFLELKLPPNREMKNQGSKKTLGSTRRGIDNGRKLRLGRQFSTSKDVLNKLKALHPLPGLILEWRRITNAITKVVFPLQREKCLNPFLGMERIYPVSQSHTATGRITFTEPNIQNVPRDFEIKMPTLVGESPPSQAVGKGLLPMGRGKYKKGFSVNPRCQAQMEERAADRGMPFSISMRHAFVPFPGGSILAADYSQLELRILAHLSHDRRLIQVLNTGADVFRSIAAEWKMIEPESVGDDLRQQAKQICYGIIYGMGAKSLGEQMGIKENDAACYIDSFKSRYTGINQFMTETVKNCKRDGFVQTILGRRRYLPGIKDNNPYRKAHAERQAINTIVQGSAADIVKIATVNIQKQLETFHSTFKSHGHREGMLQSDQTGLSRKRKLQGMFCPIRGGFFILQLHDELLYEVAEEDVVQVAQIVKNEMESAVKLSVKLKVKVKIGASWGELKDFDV

| IC50 (Polθ IC50 (nM)) [nM] | IC50 (read-out: Polθ IC50) [nM] | Structure (SMILES) |
| --- | --- | --- |
| 10 | – | Cc1cc(C(F)(F)F)cc(N2C(=O)[C@H](O)[C@H](O)[C@H]2C(=O)N(C)c2ccc(F)c(Cl)c2F)n1 [Example 71, (2S,3R,4R)—N-(3-Chloro-2,4-difluorophenyl)-3,4-dihydroxy-N-methyl-1-(6-methyl-4-(trifluoromethyl)pyridin-2-yl)-5-oxopyrrolidine-2-carboxamide] |
| 18 | – | Cc1cc(C(F)(F)F)cc(N2C(=O)N(CC3CNC3)C[C@H]2C(=O)N(C)c2ccc(F)c(Cl)c2F)n1 [Example 188, (S)-1-(Azetidin-3-ylmethyl)-N-(3-chloro-2,4-difluorophenyl)-N-methyl-3-(6-methyl-4-(trifluoromethyl)pyridin-2-yl)-2-oxoimidazolidine-4-carboxamide] |
| 226 | – | COc1cc(N(C)C(=O)[C@@H]2COC(=O)N2c2cc(C(F)(F)F)cc(C)n2)ccc1F [Example 90, (S)-N-(4-Fluoro-3-methoxyphenyl)-N-methyl-3-(6-methyl-4-(trifluoromethyl)pyridin-2-yl)-2-oxooxazolidine-4-carboxamide] |
| 9 | – | Cc1cc(C(F)(F)F)cc(N2C(=O)N(CC3(O)CCNC3)C[C@H]2C(=O)N(C)c2ccc(F)c(Cl)c2F)n1 (stereo partly drawn) [Example 222, (4S)—N-(3-Chloro-2,4-difluorophenyl)-1-((3-hydroxypyrrolidin-3-yl)methyl)-N-methyl-3-(6-methyl-4-(trifluoromethyl)pyridin-2-yl)-2-oxoimidazolidine-4-carboxamide] |
| 15 | – | CCN(C(=O)[C@@H]1C[C@H](N2CCO[C@@H](CO)C2)CN1c1nc(C)cc(C(F)(F)F)c1C#N)c1ccc(F)c(Cl)c1 [Example 155, (2S,4S)-N-(3-Chloro-4-fluorophenyl)-1-(3-cyano-6-methyl-4-(trifluoromethyl)pyridin-2-yl)-N-ethyl-4-((R)-2-(hydroxymethyl)morpholino)pyrrolidine-2-carboxamide] |
| 67 | – | Cc1cc(C(F)(F)F)c(C#N)c(N2C[C@@H](O)C[C@H]2C(=O)N(C)c2cc(F)c(F)cc2F)n1 [Example 20, (2S,4S)-1-(3-Cyano-6-methyl-4-(trifluoromethyl)pyridin-2-yl)-4-hydroxy-N-methyl-N-(2,4,5-trifluorophenyl)pyrrolidine-2-carboxamide] |
| 5 | – | Cc1cc(C(F)(F)F)cc(N2C(=O)OC[C@H]2C(=O)N(C)c2ccc(F)c(Cl)c2F)n1 [Example 85, (S)—N-(3-Chloro-2,4-difluorophenyl)-N-methyl-3-(6-methyl-4-(trifluoromethyl)pyridin-2-yl)-2-oxooxazolidine-4-carboxamide] |
| 21 | – | CCc1cc(N(C)C(=O)[C@@H]2COC(=O)N2c2cc(C(F)(F)F)cc(C)n2)ccc1F [Example 110, (S)—N-(3-Ethyl-4-fluorophenyl)-N-methyl-3-(6-methyl-4-(trifluoromethyl)pyridin-2-yl)-2-oxo-oxazolidine-4-carboxamide] |
| 32 | – | Cc1cccc(N(C)C(=O)[C@@H]2[C@H](O)CCN2c2nc(C)cc(C)c2C#N)c1 [Example 25, (2S,3R)-1-(3-Cyano-4,6-dimethylpyridin-2-yl)-3-hydroxy-N-methyl-N-(m-tolyl)pyrrolidine-2-carboxamide] |
| 37 | – | Cc1cc(C(F)(F)F)cc(N2C(=O)NC[C@H]2C(=O)N(C)c2ccc3sccc3n2)n1 [Example 237, (S)—N-Methyl-3-(6-methyl-4-(trifluoromethyl)pyridin-2-yl)-2-oxo-N-(thieno[3,2-b]pyridin-5-yl)imidazolidine-4-carboxamide] |
| 9 | – | Cc1cc(C(F)(F)F)cc(N2C(=O)N(CCN3CCS(=O)(=O)CC3)C[C@H]2C(=O)N(C)c2ccc(F)c(Cl)c2F)n1 [Example 208, (S)-N-(3-Chloro-2,4-difluorophenyl)-1-(2-(1,1-dioxidothiomorpholino)-ethyl)-N-methyl-3-(6-methyl-4-(trifluoromethyl)pyridin-2-yl)-2-oxoimidazolidine-4-carboxamide] |
| 248 | – | CCN(C(=O)[C@@H]1C[C@H](F)CN1c1nc(C)cc(C)c1C#N)c1ccc(F)c(F)c1 [Example 37, (2S,4S)-1-(3-Cyano-4,6-dimethylpyridin-2-yl)-N-(3,4-difluorophenyl)-N-ethyl-4-fluoropyrrolidine-2-carboxamide] |
| 13 | – | Cc1cccc(N(C)C(=O)[C@@H]2[C@H](O)[C@H](O)CN2c2nc(C)cc(C(F)(F)F)c2C#N)c1 [Example 54, (2S,3S,4R)-1-(3-Cyano-6-methyl-4-(trifluoromethyl)pyridin-2-yl)-3,4-dihydroxy-N-methyl-N-(m-tolyl)pyrrolidine-2-carboxamide] |
| 415 | – | Cc1cc(C)c(C#N)c(N2C[C@@H](O)C[C@H]2C(=O)N(C)c2ccc(F)c(CF)c2)n1 [Example 14, (2S,4S)-1-(3-Cyano-4,6-dimethylpyridin-2-yl)-N-(4-fluoro-3-(fluoromethyl)phenyl)-4-hydroxy-N-methylpyrrolidine-2-carboxamide] |
| 3 | – | Cc1cc(C(F)(F)F)cc(N2C(=O)NC[C@H]2C(=O)N(C)c2ccc3cc[nH]c3n2)n1 [Example 233, (S)—N-Methyl-3-(6-methyl-4-(trifluoromethyl)pyridin-2-yl)-2-oxo-N-(1H-pyrrolo[2,3-b]pyridin-6-yl)imidazolidine-4-carboxamide] |
| 9 | – | Cc1cccc(N(C(=O)[C@@H]2CCCN2c2nc(C)cc(C(F)(F)F)c2C#N)C(C)C)c1 [Example 2, (S)-1-(3-Cyano-6-methyl-4-(trifluoromethyl)pyridin-2-yl)-N-isopropyl-N-(m-tolyl)pyrrolidine-2-carboxamide] |
| 16 | – | Cc1cc(C(F)(F)F)cc(N2C(=O)N(CC3CN(C)C(=O)O3)C[C@H]2C(=O)N(C)c2ccc(F)c(Cl)c2F)n1 (single isomer, unassigned; isomer 2) [Example 230] |
| 11 | – | Cc1cc(C(F)(F)F)cc(N2C(=O)N(CCCN3CCNCC3)C[C@H]2C(=O)N(C)c2ccc(F)c(Cl)c2F)n1 [Example 220, (S)—N-(3-Chloro-2,4-difluorophenyl)-N-methyl-3-(6-methyl-4-(trifluoromethyl)pyridin-2-yl)-2-oxo-1-(3-(piperazin-1-yl)propyl)imidazolidine-4-carboxamide] |
| 11 | – | CCc1ccc(N(C)C(=O)[C@@H]2COC(=O)N2c2cc(C(F)(F)F)cc(C)n2)c(F)c1 [Example 112, (S)—N-(4-Ethyl-2-fluorophenyl)-N-methyl-3-(6-methyl-4-(trifluoromethyl)pyridin-2-yl)-2-oxooxazolidine-4-carboxamide] |
| 48 | – | Cc1cccc(N(C)C(=O)[C@@H]2C[C@H](O)CN2c2cc(C(C)C)cc(C)n2)c1 [Example 28, (2S,4S)-4-Hydroxy-1-(4-isopropyl-6-methylpyridin-2-yl)-N-methyl-N-(m-tolyl)pyrrolidine-2-carboxamide] |
| 4 | – | Cc1cc(C(F)(F)F)cc(N2C(=O)N(CCN3CCOCC3)C[C@H]2C(=O)N(C)c2ccc(F)c(Cl)c2F)n1 [Example 195, (S)-N-(3-Chloro-2,4difluorophenyl)-N-methyl-3-(6-methyl-4-(trifluoromethyl)pyridin-2-yl)-1-(2-morpholinoethyl)-2-oxoimidazolidine-4-carboxamide] |
| – | 25 | Cc1cc(C(F)(F)F)cc(N2C(=O)[C@@H](O)C[C@H]2C(=O)N(C)c2ccc(F)c(Cl)c2)n1 [Example 74, (2S,4S)—N-(3-Chloro-4-fluorophenyl)-4-hydroxy-N-methyl-1-(6-methyl-4-(trifluoromethyl)-pyridin-2-yl)-5-oxopyrrolidine-2-carboxamide] |
| 8 | – | CCN(C(=O)[C@@H]1[C@H](O)CCN1c1nc(C)cc(C(F)(F)F)c1C#N)c1ccc(F)c(Cl)c1 [Example 82, (2S,3R)—N-(3-Chloro-4-fluorophenyl)-1-(3-cyano-6-methyl-4-(trifluoromethyl)pyridin-2-yl)-N-ethyl-3-hydroxypyrrolidine-2-carboxamide] |
| 7 | – | Cc1cc(C(F)(F)F)cc(N2C(=O)N(CCN3CCOCC3)C[C@H]2C(=O)N(C)c2ccc(F)c(Cl)c2)n1 [Example 194, (S)-N-(3-Chloro-4-fluorophenyl)-N-methyl-3-(6-methyl-4-(trifluoromethyl)pyridin-2-yl)-1-(2-morpholinoethyl)-2-oxoimidazolidine-4-carboxamide] |
| 6 | – | Cc1cc(C(F)(F)F)cc(N2C(=O)C[C@@H](O)[C@H]2C(=O)N(C)c2ccc(F)c(Cl)c2)n1 [Example 80, (2S,3R)—N-(3-Chloro-4-fluorophenyl)-3-hydroxy-N-methyl-1-(6-methyl-4-(trifluoromethyl)-pyridin-2-yl)-5-oxopyrrolidine-2-carboxamide] |
| 524 | – | Cc1cc(C(F)(F)F)c(C#N)c(N2C[C@@H](O)C[C@H]2C(=O)N(C)c2ccc(C(F)(F)F)c(F)c2)n1 [Example 19, (2S,4S)-1-(3-Cyano-6-methyl-4-(trifluoromethyl)pyridin-2-yl)-N-(3-fluoro-4-(trifluoromethyl)-phenyl)-4-hydroxy-N-methyl-pyrrolidine-2-carboxamide] |
| 16 | – | Cc1cc(C(F)(F)F)cc(N2C(=O)OC[C@H]2C(=O)N(C)c2ccc(Cl)c(Cl)c2)n1 [Example 89, (S)-N-(3,4-Dichlorophenyl)-N-methyl-3-(6-methyl-4-(trifluoromethyl)-pyridin-2-yl)-2-oxooxazolidine-4-carboxamide] |
| 3 | – | CC(=O)N1CCN(CCN2C[C@@H](C(=O)N(C)c3ccc(F)c(Cl)c3F)N(c3cc(C(F)(F)F)cc(C)n3)C2=O)CC1 [Example 204, (S)-1-(2-(4-Acetylpiperazin-1-yl)ethyl)-N-(3-chloro-2,4-difluoro-phenyl)-N-methyl-3-(6-methyl-4-(trifluoromethyl)pyridin-2-yl)-2-oxoimidazolidine-4-carboxamide] |
| 452 | – | Cc1cc(C)c(C#N)c(N2C[C@@H](O)C[C@H]2C(=O)N(C)c2cccc(CF)c2)n1 [Example 11, (2S,4S)-1-(3-Cyano-4,6-dimethylpyridin-2-yl)-N-(3-(fluoromethyl)phenyl)-4-hydroxy-N-methylpyrrolidine-2-carboxamide] |
